Measured values taken from US20200055808A1, “COMPOSITION FOR USE IN DETECTING AN ALLERGY TO CLAVULANIC ACID” (SERVICIO ANDALUZ DE SALUD, priority 2016, published 2020).

Key:
basophils = test: Basophil activation test (BAT) by flow cytometry; format: cell-based, human; settings: for BAT result (stimulation index): 5, 1 and 0.2 mM, 25 patients selective for CLV and 15 tolerant controls, positive at the highest concentration, FIG. 3; for stimulation indices in patients compared to controls: 8, 4, 2, 1 mM, 7 patients positive for Clav 2 vs 6 controls, p=0.003 Clav 2 and p=0.015 Clav 5 at 8 mM, p=0.015 Clav 2 at 4 mM, FIG. 5
Source text: The “basophil activation test” or “BAT” is an in vitro functional test which detects the activation of basophils after a stimulus with a specific antigen by detecting the expression of cell surface activation markers, which is usually monitored by flow cytometry using fluorescent monoclonal antibodies. Therefore, this test is used for the in vitro diagnosis of allergies. The technique comprises several steps: drawing blood and preparing the solution or suspension, performing stimulation with allergen(s), performing cellular marking with fluorescent antibodies which discriminate activated basophils, and performing counting in a flow cytometer. The technique can be carried out using as the substrate whole blood or the buffy coat previously isolated from the whole blood sample.
The BAT was performed as described by Torres M J et al. (Torres M J, et al. Clin Exp Allergy 2004; 34:1768-75) with CLV (Sigma Aldrich, Saint Louis, USA). […] The cells were stained with monoclonal antibodies, anti-CD63-FITC, CD203c-PE, CCR3-APC (Caltag Laboratories, Burlingame, Calif.), and measured in a FACSCalibur flow cytometer (Becton-Dickinson Bioscience, San José, Calif.) acquiring at least 500-1000 basophils per sample. The results were analyzed with FlowJo® software (Tree Star, Inc. USA), and the activation was expressed as a stimulation index (SI), calculated as the ratio between the percentage of activated basophils (CD63+ or CD203c+cells) in samples stimulated with different haptenes and non-stimulated sample. To calculate the SI, the percentage of spontaneously activated basophils was required to be equal to or greater than 5%, as described by Sanz M L et al. (Sanz M L, et al. Clin Exp Allergy 2002; 32:277-86).

[1] = tested on: IgE-mediated basophil activation pathway; test: BAT with wortmannin (WTM) inhibition of the IgE-mediated basophil activation pathway; format: cell-based, human; settings: WTM 1 μM; 8 mM: p=0.002 Clav2, p=0.001 Clav 5; 4 mM: p=0.001 both; FIG. 7
Protocol: To confirm that the activation of basophils was mediated by IgE, the inhibitory effect of wortmannin at 1 μM was analyzed. Wortmannin acts as a specific inhibitor of phosphatidylinositol 3-kinase (Pl3-K), which has proven to be one of the most important FceRI receptor-activated kinases involved in human basophil IgE-mediated stimulation. This was used with the positive control (anti-IgE) and the different haptenes and synthesized structures at the same concentrations described above.

[2] = 15 tolerant subjects, cutoff SI CLV >1.5, Clav 2 >3 (ROC curves), FIG. 4
[3] = 25 patients selective for CLV, cutoff SI CLV >1.5, Clav 2 >3 (ROC curves), FIG. 4
[4] = 6 tolerant controls, same cutoff point, FIG. 6
[5] = 7 patients positive for Clav 2 in the preceding test, same cutoff point, FIG. 6

SMILES | percentage of positive cases in BAT (basophils; [2]) [%] | percentage of positive cases in BAT (basophils; [3]) [%] | BAT result (stimulation index) (basophils; first phase) | percentage of positive cases in BAT (basophils; [4]) | percentage of positive cases in BAT (basophils; [5]) [%] | stimulation indices in patients compared to controls (basophils) | stimulation index in patients compared to the tolerant controls (basophils; first phase, 25 patients selective for CLV vs 15 tolerant controls, p<0.0001 (Mann-Whitney)) | basophil activation after prior incubation with WTM [1]
O=C(O)[C@H]1/C(=C/CO)O[C@@H]2CC(=O)N21 [CLV, (3R,5R,Z)-2-(2-hydroxyethylidene)-7-oxo-1-oxa-4-aza-bicyclo[3.2.0]heptane-3-carboxylic acid, reference compound] | 13.3 | 24 | – | – | – | – | – | –
CCCCNC(=O)CC(OC)OC [Clav 1, N-butyl-3,3-dimethoxypropanamide] | – | – | only Clav 2 provided positive results | – | – | – | – | –
CC(C)COC(=O)OC(=O)CC(=O)OC(=O)OCC(C)C [Clav 2, bis-((isobutoxycarbonyl)oxy)-1,3-dioxopropanoic anhydride] | 33.3 | 56 | positive results | no positive case | 85.7 | higher stimulation indices | significantly higher | IgE-mediated and specific
CCCCNC(=O)CCN [Clav 3, 3-amino-N-butylpropanamide] | – | – | only Clav 2 provided positive results | – | – | – | – | –
NCCC(=O)O [Clav 4, 3-aminopropanoic acid] | – | – | only Clav 2 provided positive results | – | – | – | – | –
CCOC(CC(=O)OC(=O)CC(OCC)OCC)OCC [Clav 5, 3,3-diethoxypropanoic anhydride] | – | – | – | 28.6% | 71.4 | higher stimulation indices | – | IgE-mediated and specific
